IC50 data for 25 compounds are collected here from patent publication US11944605B2, “Rapamycin analogs and uses thereof” (Janssen Pharmaceutica NV, priority 2018, dated 2024).

Each structure is given as a SMILES string.

The test system of the experiment is pS6K1 (p-p70 S6 Kinase (Thr389)) in MCF-7 cells. Kind of experiment: AlphaLISA Ultra pS6K1 Assay. Type of experiment: cell-based. Particulars: Homo sapiens, 1.5 h; MCF7 cells, 90 min. On the procedure:
AlphaLISA Ultra pS6K1 Assay
1. Seed MCF-7 cells in Corning 3701 plate and incubate for 20˜24 hour. 12,000˜16,000 cells will be seeded in 36 μL medium per well.
2. Change the culture medium with fresh medium and incubate for another 2 hours.
3. Add 12 μL (4×) compounds into the cell plate by HAMILTON. Final DMSO concentration is 0.5%. Incubate for 90 minutes.
4. Aspirate […] by HAMILTON, 10 μL rest per well.
5. Add 10 μL 2× lysis buffer using HAMILTON; total volume in wells is 20 μL. Allow cells to shake for 30 min. Cover plate by plastic foil and store plate at −80° C. up to analysis.
6. Thaw cell lysate at RT and transfer 10 μL lysate to assay plate (Optiplate-384).
7. Add 5 μL acceptor beads into assay plate and incubation for 2 hours
8. Add 5 μL donor beads and incubation for 2 hours
9. Count the plate by EnSpire Multimode Plate Reader
(In general: Bead proximity is the source of the signal in Alpha formats.)
Regarding `CO[C@@H]1C[C@H](C[C@@H](C)[C@@H]2CC(=O)[C@H](C)/C=C(\C)[C@@H](O)[C@@H](OC)C(=O)[C@H](C)C[C@H](C)/C=C/C=C/C=C(\C)[C@H](OC[C@@H](O)[C@@H](O)[C@H](O)[C@H](O)CO)C[C@@H]3CC[C@@H](C)[C@@](O)(O3)C(=O)C(=O)N3CCCC[C@H]3C(=O)O2)CC[C@H]1O` [Compound I-57], the half-inhibitory concentration (IC50) (in general, the concentration that gives 50% inhibition) is below 0.1 nM. The compound `CO[C@@H]1C[C@H](C[C@@H](C)[C@@H]2CC(=O)[C@H](C)/C=C(\C)[C@@H](O)[C@@H](OC)C(=O)[C@H](C)C[C@H](C)/C=C/C=C/C=C(\C)[C@@H](OC[C@@H](O)[C@@H](O)[C@H](O)[C@H](O)CO)C[C@@H]3CC[C@@H](C)[C@@](O)(O3)C(=O)C(=O)N3CCCC[C@H]3C(=O)O2)CC[C@H]1O` [Compound I-58] had a half-inhibitory concentration (IC50) of 0.1 to 1 nM. In the case of `CO[C@@H]1C[C@H](C[C@@H](C)[C@@H]2CC(=O)[C@H](C)/C=C(\C)[C@@H](O)[C@@H](OC)C(=O)[C@H](C)C[C@H](C)/C=C/C=C/C=C(\C)C(OC[C@@H](O)[C@@H](O)[C@H](O)[C@H](O)CO)C[C@@H]3CC[C@@H](C)[C@@](O)(O3)C(=O)C(=O)N3CCCC[C@H]3C(=O)O2)CC[C@H]1O` (stereo partly shown) [Compound I-63], the IC50 was at least 100 nM. The compound `CO[C@@H]1C[C@H](C[C@@H](C)[C@@H]2CC(=O)[C@H](C)/C=C(\C)[C@@H](O)[C@@H](OC)C(=O)[C@H](C)C[C@H](C)/C=C/C=C/C=C(\C)[C@H](OCCOCC(COCCO)COCCO)C[C@@H]3CC[C@@H](C)[C@@](O)(O3)C(=O)C(=O)N3CCCC[C@H]3C(=O)O2)CC[C@H]1O` [Compound I-64] had an IC50 of 1 to 10 nM.

`CO[C@@H]1C[C@H](C[C@@H](C)[C@@H]2CC(=O)[C@H](C)/C=C(\C)[C@@H](O)[C@@H](OC)C(=O)[C@H](C)C[C@H](C)/C=C/C=C/C=C(\C)[C@@H](OCCOCC(COCCO)COCCO)C[C@@H]3CC[C@@H](C)[C@@](O)(O3)C(=O)C(=O)N3CCCC[C@H]3C(=O)O2)CC[C@H]1O` [Compound I-65] returned an IC50 of 0.1 to 1 nM.

Turning to `CO[C@@H]1C[C@H](C[C@@H](C)[C@@H]2CC(=O)[C@H](C)/C=C(\C)[C@@H](O)[C@@H](OC)C(=O)[C@H](C)C[C@H](C)/C=C/C=C/C=C(\C)[C@H](OCCOCCO)C[C@@H]3CC[C@@H](C)[C@@](O)(O3)C(=O)C(=O)N3CCCC[C@H]3C(=O)O2)CC[C@H]1OCCOCCO` [Compound I-66], the half-maximal inhibitory concentration (IC50) was in the range of 1 to 10 nM.

Turning to `CO[C@@H]1C[C@H](C[C@@H](C)[C@@H]2CC(=O)[C@H](C)/C=C(\C)[C@@H](O)[C@@H](OC)C(=O)[C@H](C)C[C@H](C)/C=C/C=C/C=C(\C)[C@@H](OCCOCCO)C[C@@H]3CC[C@@H](C)[C@@](O)(O3)C(=O)C(=O)N3CCCC[C@H]3C(=O)O2)CC[C@H]1OCCOCCO` [Compound I-67], the half-maximal inhibitory concentration (IC50) was in the range of 0.1 to 1 nM. On to `CO[C@@H]1C[C@H](C[C@@H](C)[C@@H]2CC(=O)[C@H](C)/C=C(\C)[C@@H](O)[C@@H](OC)C(=O)[C@H](C)C[C@H](C)/C=C/C=C/C=C(\C)[C@H](OCCOCCOCCO)C[C@@H]3CC[C@@H](C)[C@@](O)(O3)C(=O)C(=O)N3CCCC[C@H]3C(=O)O2)CC[C@H]1OCCOCCOCCO` [Compound I-72], for which the IC50 was 1 to 10 nM. The compound `CO[C@@H]1C[C@H](C[C@@H](C)[C@@H]2CC(=O)[C@H](C)/C=C(\C)[C@@H](O)[C@@H](OC)C(=O)[C@H](C)C[C@H](C)/C=C/C=C/C=C(\C)[C@@H](OCCOCCOCCO)C[C@@H]3CC[C@@H](C)[C@@](O)(O3)C(=O)C(=O)N3CCCC[C@H]3C(=O)O2)CC[C@H]1OCCOCCOCCO` [Compound I-73] yielded an IC50 of 1 to 10 nM. Consider `CNC(=O)OCCO[C@@H]1C[C@@H]2CC[C@@H](C)[C@@](O)(O2)C(=O)C(=O)N2CCCC[C@H]2C(=O)O[C@H]([C@H](C)C[C@@H]2CC[C@@H](OCCO)[C@H](OC)C2)CC(=O)[C@H](C)/C=C(\C)[C@@H](O)[C@@H](OC)C(=O)[C@H](C)C[C@H](C)/C=C/C=C/C=C/1C` [Compound I-74], for which the 50% inhibitory concentration (IC50) lay within 0.1 to 1 nM.

As to `CNC(=O)OCCO[C@H]1C[C@@H]2CC[C@@H](C)[C@@](O)(O2)C(=O)C(=O)N2CCCC[C@H]2C(=O)OC([C@H](C)CC2CC[C@@H](OCCO)[C@H](OC)C2)CC(=O)[C@H](C)/C=C(\C)[C@@H](O)[C@@H](OC)C(=O)[C@H](C)C[C@H](C)/C=C/C=C/C=C/1C` (stereo partly shown) [Compound I-75], the IC50 is below 0.1 nM. `CO[C@@H]1C[C@H](C[C@@H](C)[C@@H]2CC(=O)[C@H](C)/C=C(\C)[C@@H](O)[C@@H](OC)C(=O)[C@H](C)C[C@H](C)/C=C/C=C/C=C(\C)C(OCCOCCO)C[C@@H]3CC[C@@H](C)[C@@](O)(O3)C(=O)C(=O)N3CCCC[C@H]3C(=O)O2)CC[C@H]1OCCOCCO` (stereo partly shown) [Compound I-76]: the 50% inhibitory concentration (IC50) fell in the range of 1 to 10 nM. Turning to `CO[C@@H]1C[C@H](C[C@@H](C)[C@@H]2CC(=O)[C@H](C)/C=C(\C)[C@@H](O)[C@@H](OC)C(=O)[C@H](C)C[C@H](C)/C=C/C=C/C=C(\C)C(OCCOCCOCCO)C[C@@H]3CC[C@@H](C)[C@@](O)(O3)C(=O)C(=O)N3CCCC[C@H]3C(=O)O2)CC[C@H]1OCCOCCOCCO` (stereo partly shown) [Compound I-78], the 50% inhibitory concentration (IC50) lay within 1 to 10 nM. Take `CO[C@@H]1C[C@H](C[C@@H](C)[C@@H]2CC(=O)[C@H](C)/C=C(\C)[C@@H](O)[C@@H](OC)C(=O)[C@H](C)C[C@H](C)/C=C/C=C/C=C(\C)[C@H](OCCOCCOC(F)(F)C(F)(F)F)C[C@@H]3CC[C@@H](C)[C@@](O)(O3)C(=O)C(=O)N3CCCC[C@H]3C(=O)O2)CC[C@H]1OCCO` [Compound I-79]: the half-maximal inhibitory concentration (IC50) lay in the range of 1 to 10 nM. As for `CO[C@@H]1C[C@H](C[C@@H](C)[C@@H]2CC(=O)[C@H](C)/C=C(\C)[C@@H](O)[C@@H](OC)C(=O)[C@H](C)C[C@H](C)/C=C/C=C/C=C(\C)[C@@H](OCCOCCOC(F)(F)C(F)(F)F)C[C@@H]3CC[C@@H](C)[C@@](O)(O3)C(=O)C(=O)N3CCCC[C@H]3C(=O)O2)CC[C@H]1OCCO` [Compound I-80], the figure is 0.1 to 1 nM; as for `CNC(=O)OCCOC1C[C@@H]2CC[C@@H](C)[C@@](O)(O2)C(=O)C(=O)N2CCCC[C@H]2C(=O)O[C@H]([C@H](C)C[C@@H]2CC[C@@H](OCCO)[C@H](OC)C2)CC(=O)[C@H](C)/C=C(\C)[C@@H](O)[C@@H](OC)C(=O)[C@H](C)C[C@H](C)/C=C/C=C/C=C/1C` (stereo partly shown) [Compound I-81], 1 to 10 nM; as for `CO[C@@H]1C[C@H](C[C@@H](C)[C@@H]2CC(=O)[C@H](C)/C=C(\C)[C@@H](O)[C@@H](OC)C(=O)[C@H](C)C[C@H](C)/C=C/C=C/C=C(\C)[C@H](OCCOCCOC(F)(F)F)C[C@@H]3CC[C@@H](C)[C@@](O)(O3)C(=O)C(=O)N3CCCC[C@H]3C(=O)O2)CC[C@H]1OCCO` [Compound I-82], 0.1 to 1 nM. In turn, `CO[C@@H]1C[C@H](C[C@@H](C)[C@@H]2CC(=O)[C@H](C)/C=C(\C)[C@@H](O)[C@@H](OC)C(=O)[C@H](C)C[C@H](C)/C=C/C=C/C=C(\C)C(OCCOCCOCC(F)(F)F)C[C@@H]3CC[C@@H](C)[C@@](O)(O3)C(=O)C(=O)N3CCCC[C@H]3C(=O)O2)CC[C@H]1OCCO` (stereo partly shown) [Compound I-86] came in with a half-maximal inhibitory concentration (IC50) below 0.1 nM. Regarding `CO[C@@H]1C[C@H](C[C@@H](C)[C@@H]2CC(=O)[C@H](C)/C=C(\C)[C@@H](O)[C@@H](OC)C(=O)[C@H](C)C[C@H](C)/C=C/C=C/C=C(\C)C(OCCOCCOC(F)(F)C(F)(F)F)C[C@@H]3CC[C@@H](C)[C@@](O)(O3)C(=O)C(=O)N3CCCC[C@H]3C(=O)O2)CC[C@H]1OCCO` (stereo partly shown) [Compound I-87], the 50% inhibitory concentration (IC50) is below 0.1 nM.

As for `CO[C@@H]1C[C@H](C[C@@H](C)[C@@H]2CC(=O)[C@H](C)/C=C(\C)[C@@H](O)[C@@H](OC)C(=O)[C@H](C)C[C@H](C)/C=C/C=C/C=C(\C)C(OCCOCCOC(F)(F)F)C[C@@H]3CC[C@@H](C)[C@@](O)(O3)C(=O)C(=O)N3CCCC[C@H]3C(=O)O2)CC[C@H]1OCCO` (stereo partly shown) [Compound I-88], the concentration for half-maximal inhibition (IC50) was below 0.1 nM. Consider `COCCOCCO[C@@H]1C[C@@H]2CC[C@@H](C)[C@@](O)(O2)C(=O)C(=O)N2CCCC[C@H]2C(=O)O[C@H]([C@H](C)C[C@@H]2CC[C@@H](OCCOC)[C@H](OC)C2)CC(=O)[C@H](C)/C=C(\C)[C@@H](O)[C@@H](OC)C(=O)[C@H](C)C[C@H](C)/C=C/C=C/C=C/1C` [Compound I-89], for which the 50% inhibitory concentration (IC50) was 1 to 10 nM. Take `CO[C@@H]1C[C@H](C[C@@H](C)[C@@H]2CC(=O)[C@H](C)/C=C(\C)[C@@H](O)[C@@H](OC)C(=O)[C@H](C)C[C@H](C)/C=C/C=C/C=C(\C)C(OCCOCCOCC(F)(F)F)C[C@@H]3CC[C@@H](C)[C@@](O)(O3)C(=O)C(=O)N3CCCC[C@H]3C(=O)O2)CC[C@H]1O` (stereo partly shown) [Compound I-91]: the 50% inhibitory concentration (IC50) is below 0.1 nM. The compound `COCCOCCOC1C[C@@H]2CC[C@@H](C)[C@@](O)(O2)C(=O)C(=O)N2CCCC[C@H]2C(=O)OC([C@H](C)CC2CC[C@@H](OCCOC)[C@H](OC)C2)CC(=O)[C@H](C)/C=C(\C)[C@@H](O)[C@@H](OC)C(=O)[C@H](C)C[C@H](C)/C=C/C=C/C=C/1C` (stereo partly shown) [Compound I-92] returned a 50% inhibitory concentration (IC50) of 0.1 to 1 nM. Consider `CO[C@@H]1C[C@H](C[C@@H](C)[C@@H]2CC(=O)[C@H](C)/C=C(\C)[C@@H](O)[C@@H](OC)C(=O)[C@H](C)C[C@H](C)/C=C/C=C/C=C(\C)C(OCCOCCOCCOCCOCCOCCOCCOCCOCCOCCO)C[C@@H]3CC[C@@H](C)[C@@](O)(O3)C(=O)C(=O)N3CCCC[C@H]3C(=O)O2)CC[C@H]1O` (stereo partly shown) [Compound I-98], for which the half-maximal inhibitory concentration (IC50) lay within 1 to 10 nM. As for `CO[C@@H]1C[C@H](C[C@@H](C)[C@@H]2CC(=O)[C@H](C)/C=C(\C)[C@@H](O)[C@@H](OC)C(=O)[C@H](C)C[C@H](C)/C=C/C=C/C=C(\C)C(OCCOCC(COCCO)COCCO)C[C@@H]3CC[C@@H](C)[C@@](O)(O3)C(=O)C(=O)N3CCCC[C@H]3C(=O)O2)CC[C@H]1O` (stereo partly shown) [Compound I-100], the figure is 1 to 10 nM.
